Assay results as given in patent US8492159B2, “Methods and compositions for treating conditions” (priority 2004, dated 2013).

Tests used:
[1] = tested on: Pseudomonas syringae pv tomato, DC3000; experiment: Systemic resistance of plants to a virulent bacterial pathogen; type: in vivo, Arabidopsis ecotype Columbia (Col-0); conditions: 20 μl salicylic acid at 1 mM and 20 μl SEQ ID NO: 15 applied together to the leaves
Protocol: Seeds of Arabidopsis ecotype Columbia (Col-0) were planted in potting soil. Plants were cultivated in a growth chamber with 10-h d (200 μmol m^−2 s^−1 at 22° C.) and 14-h night (18° C.) cycles and 80% RH. Once a week plants were supplied with water and modified one-half strength Hoagland nutrient solution: 2 mM KNO 5 mM Ca(NO3)2 and trace elements, pH 7.
A virulent plant pathogen, Pst Pseudomonas syringae pv tomato, DC3000 was grown at 28° C. on King's medium B containing 40 mg/L tetracycline. Plants were inoculated with 1×10^7 cfu/ml of the pathogen in 0.01% Silwet L77 (v/v) (a surfactant) and distilled water 5 weeks after sowing. The bacterial suspension or a control solution (0.01% Silwet L77 in water) was then sprayed on the plant once.
Disease symptoms in Arabidopsis are water-soaked, spreading lesions, sometimes surrounded by chlorotic margin that eventually lead to yield loss and plant death.
To test the efficacy of SEQ ID NO: 15, some healthy and some disease plants were sprayed with salicylic acid in 0.01%. Silwet L77; some healthy and some disease plants were sprayed with SEQ ID NO: 15 in 0.01%. Silwet L77, and some healthy and some disease plants were sprayed with salicylic acid in combination with SEQ ID NO: 15 in 0.01%. Silwet L77. A control group of some healthy and some disease plants were sprayed with water in 0.01%. Silwet L77. […]

[2] = tested on: Sauromatum guttatum appendix; experiment: Modulation of heat generated by aspirin (ASA) in appendix sections; conditions: appendix sections in aqueous ASA with or without peptide
Protocol: (§1) In one example, using Sauromatum guttatum as the experimental module, on the day of inflorescence-opening, the Sauromatum appendix (a 20-40 cm-long, slender organ) becomes warm, reaching a 32° C. temperature (Skubatz et al., 1991, Plant Physiol. 95:1084-1088). The heat generated by the appendix is generated by the mitochondria. This mitochondrial activity can be triggered by the addition of phenolic compounds, including but not limited to, salicylic acid, aspirin, and 2,6-dihydroxybenzoic acid. Test agents can be applied to the plant and the plant's temperature may be monitored in vivo.
One day before heat-production, sections of the appendix were placed in different aqueous solutions containing ASA with or without an opioid peptide. [Leu]-Enkephalin, SEQ ID NO: 15; Human β-Endorphin; SEQ ID NO: 19; Dynorphin A, SEQ ID NO: 21; Endomorphin 2, SEQ ID NO: 24; Neuropeptide AF, SEQ ID NO: 44; β-human-Casomorphin, SEQ ID NO: 47; Alzheimer's peptide, SEQ ID NO: 48. […] Temperature was recorded with thermocouples attached to the section every 5 min.

[3] = tested on: Sauromatum guttatum appendix; experiment: Modulation of heat generated by salicylic acid (SA) in appendix sections; conditions: appendix sections in aqueous SA with or without peptide
Protocol: as §1
FIG. 5 illustrates modulation of heat generated by salicylic acid (SA) in the presence of human opioid peptides (β-Endorphin, SEQ ID NO: 19 and Nueuropeptide AF, SEQ ID NO: 44) and, the Alzheimer's peptide, Aβ 1-42, SEQ ID NO: 49, and, a plant virulent bacterial pathogen (Pst DC3000). One day before heat-production, sections of the appendix were placed in different aqueous solutions containing salicylic acid (SA) with or without a peptide or with the bacterial plant pathogen, Pseudomonas syringae pv. Tomato, DC3000. Sections from the appendix were placed in distilled water that was not generated any heat is the control (water). Temperature was recorded with thermocouples attached to the sections every 5 min.

[4] = tested on: Sauromatum guttatum appendix; experiment: Modulation of heat generated by 2,6-dihydroxybenzoic acid (2,6-DHBA) in appendix sections; peptide alone in a second experiment
Protocol: as §1
FIG. 6 illustrates modulation of heat generated by 2,6-dihydroxybenzoic acid in the presence of the Alzheimer's peptide, A.β.1-42, SEQ ID NO: 49 and a plant gene derived sequence in the Sauromatum guttatum appendix. One day before heat-production, sections of the appendix were placed in different solutions containing 2,6-dihydroxybenzoic acid (2,6-DHBA) with or without SEQ ID NO: 2 (FLPSEFGVDVDR) and SEQ ID NO: 49. Heat-production was monitored with thermocouples attached to the sections. A section placed in distilled water that was not generated any heat is the control (water). […] The temperature was recorded every 5 min.

[5] = tested on: Arabidopsis thaliana plants; experiment: Flowering of treated plants; type: in vivo; conditions: 10 μm in 0.01% Silwet L-77
chronic pain = experiment: Topical administration to an adult subject with chronic pain, scaled score 1 to 10; type: in vivo, human
Protocol: An adult subject suffering from chronic pain as a result from of multiple fractures to both tibia and fibula in both legs and severe traumatic soft tissue damage was topically administered a composition containing a polypeptide of SEQ ID NO: 1 at regions experiencing pain (mostly knees and ankles). The pharmaceutical formulation administered comprised of 5 μM of SEQ ID NO: 1 in 0.01% Silwet L-77. Relief was noticed within 15 min. after administration of a single dose of about 5 μg/10 cm2 of SEQ ID NO: 1. […] A scaled score of 1 to 10 was used to evaluate treatment efficacy where a score of 10 represented a patient with sever pain discomfort and complete inability to walk. A scaled score of 1 represented a patient experiencing no pain and able to freely walk or move the legs. Prior to treatment, the patient scored an 8-9 representing chronic pain and difficulties in walking long distance. After the treatment, the patient scored a 2-3 representing a significant decrease in pain. Treatment efficacy lasted for about 10 days.

[6] = tested on: post-operative pain in rats; experiment: Hind paw withdrawal threshold (von Frey filaments) after surgery, second study; type: in vivo, rat
Protocol: In a second independent study the rat hind paw withdrawal sensitivity was again evaluated after 3 h and 3 day post-surgery when the rats had received SEQ ID NO: 1 at three different concentrations: 1, 15 and 50 mg/kg. The dosing route was subdermal injection adjacent to the wound site. The rats received one dose 3 hours after the surgery and on Day 3 post-surgery, group 3 was dosed again as described in the Table IV. Pain measurements were taken 15-20 min after application of the drug. Baseline pain behavior was measured as follows: Withdrawal responses to mechanical stimulation were determined using von Frey filaments applied from underneath the cage through openings (12×12 mm in the plastic mesh floor to an area adjacent to the intended incision. Each von Frey filament (Target force of 0.008 g to 300 g) was applied once starting with 0.008 g filament and continuing until a withdrawal response occurred or 300 g force was reached. The median force producing a response, determined from three tests given over a 10-min period was considered the withdrawal threshold.
In the saline treated animals, the control, 3-hour post-surgery were 25.1, 4.4 and 12.7 g, indicating significant hyperalgesic response immediately after surgery which subsided by Day-3. […] The withdrawal response in the 50 mg/kg SEQ ID NO: 1 administered on Day-1 was 9.9 g compared to the 4.4 g for the saline group at the same time-point, indicating a 125% effect. The data expressed as mean±SE, were analyzed using ANOVA followed by Tukey-HSD Multiple Comparison Test. Statistical significance was p<0.05.
On Day-3, when these animals were administered with […] of SEQ ID NO: 1 subdermally, the withdrawal response was at 21.3 g, compared to the withdrawal response of saline group at 12.7 g, constituting an increase of 68%. The data expressed as mean±SE, were analyzed using ANOVA followed by Tukey-HSD Multiple Comparison Test. Statistical significance was p<0.05.

[7] = tested on: post-operative pain in rats; experiment: Von Frey testing for mechanical allodynia, post-operative pain (Brennan model), first study; type: in vivo, rat
Source text: A total of forty (40) male Sprague Dawley rats (Harlan Sprague Dawley Inc., Indianapolis, Ind., USA) were used in the study. The rats are specific pathogen free and approximately 250 grams upon arrival. The rats were housed in the vivarium in clear polycarbonate plastic cages (48×27×20 cm); 2 rats per cage until a few days prior to surgery at which point they were singularly housed for the remainder of the study procedures. The bedding material is irradiated corn-cob bedding (Bed-O-Cob, The Andersons, Maumee, Ohio, USA) that was changed weekly. The rats were acclimated for two weeks prior to the commencement of the experimental procedures. The room in which the rats were housed throughout the study was supplied with HEPA filtered air at the rate of 10-15 air changes per hour. The temperature was maintained at 18-26° C. with a relative humidity of 30-70%. Illumination is approximately 300 lumens/m^2 at 1 m above floor level on a 12-hour light/dark cycle. […]
On days 1 and 3 post-surgery, the rats underwent Von Frey testing for mechanical allodynia. Tactile sensitivity (i.e. mechanical allodynia) was measured using calibrated filaments touched to the plantar surface of the affected limb. […]
FIG. 1. Data were analyzed using a one-way ANOVA followed by Newman-Keuls' Multiple Comparison. […]

O=C(O)c1ccccc1O [salicylic acid]
systemic resistance to the virulent bacteria [1]: enough to trigger systemic resistance

YGGFMTSEKSQTPLVTLFKNAIIKNAYKKGE [SEQ ID NO: 19]
modulation of heat generated by aspirin (ASA) (FIG. 4) [2]: can modulate thermogenicity in plants | modulation of heat generated by salicylic acid (SA) (FIG. 5) [3]: modulate thermogenicity in plants

YPFF [SEQ ID NO: 24]
modulation of heat generated by aspirin (ASA) (FIG. 4) [2]: can modulate thermogenicity in plants

AGEGLNSQFWSLAAPQRF [SEQ ID NO: 44]
modulation of heat generated by aspirin (ASA) (FIG. 4) [2]: can modulate thermogenicity in plants | modulation of heat generated by salicylic acid (SA) (FIG. 5) [3]: modulate thermogenicity in plants

YGGFLRRIRPKLKWDNQ [SEQ ID NO: 21]
modulation of heat generated by aspirin (ASA) (FIG. 4) [2]: can modulate thermogenicity in plants

YPFVEPIP [SEQ ID NO: 47]
modulation of heat generated by aspirin (ASA) (FIG. 4) [2]: can modulate thermogenicity in plants

FLPSEFGVDVDR [SEQ ID NO: 2]
modulation of heat generated by 2,6-dihydroxybenzoic acid (FIG. 6) ([4]; appendix sections in 2,6-DHBA with or without peptide): modulate thermogenicity in plants | heat generation by the peptide ([4]; second experiment, up to 50 μM, data not shown): did not generate heat

FLPS (Description of Unknown: Arabidopsis thaliana or Homo sapiens) [SEQ ID NO: 1]
flowering [5]: induces early flowering and abundance of flowers and pods | scaled pain score after the treatment (chronic pain; scale 1 (no pain) to 10 (severe pain), prior to treatment 8-9): 2-3 | duration of treatment efficacy (chronic pain; topical, single dose): about 10 days | duration of relief (chronic pain; topical, single dose of about 5 μg/10 cm2): more than a week | time until relief was noticed (chronic pain; topical, single dose of about 5 μg/10 cm2, 5 μM in 0.01% Silwet L-77): ≤ 15 min | increase in the pain threshold ([6]; 1 mg/kg on day 1, 3-hour post surgery measurements): 39% | effect compared to the saline group at the same time-point ([6]; 50 mg/kg subdermal, Day-1, 3 h after surgery): 125% | withdrawal response ([6]; 50 mg/kg subdermal, Day-1, 3 h after surgery, saline group 4.4 g): 9.9 g | increase in response time compared to the saline group ([6]; Day 3, group which did not receive any further dosing): 31% | increase of withdrawal response compared to saline group ([6]; Day-3, 15.25 mg/kg subdermally): 68% | withdrawal response ([6]; Day-3, 15.25 mg/kg subdermally (animals given 1 mg/kg on day 1), saline group 12.7 g): 21.3 g | pain (mechanical allodynia, paw withdrawal threshold, FIG. 1) ([7]; rats 3 days after surgery, 150 μg topical or subdermal, p<0.05): significantly reduce pain | appearance of the rats ([7]; rats after surgery, treated): relaxed and with less anxiety

YGGFL [SEQ ID NO: 15]
modulation of heat generated by aspirin (ASA) (FIG. 4) [2]: can modulate thermogenicity in plants | systemic resistance to the virulent bacteria [1]: enough to trigger systemic resistance
